# System: Melanoderm cultures
# Assay: Solvable melanin assay on Melanoderm cultures (3-D skin model)
# Format: cell-based
# Details: for OD = 490 nm (melanin content, Solvable melanin assay): Melanoderm cultures fed every other day for 2 weeks, DMSO control 1.292, untreated 1.259
# Method: This experiment was carried out using Melanoderm cultures. Luminescence was measured using a chromameter to assay the degree of melanization of a 3-D skin model.
# Method for Melanoderm Cultures
# Melanoderm cultures were obtained from MatTek Corporation, Ashland, Mass. The Melanoderm was maintained according to the manufacturer's instructions. The basal media used for the maintenance of the Melanoderm cultures was DMEM supplemented with unspecified quantities of Epidermal growth factor, Insulin, Hydrocortisone, and proprietary epidermal differentiation compounds, in addition to anti-fungal and antibiotics.
# For the long term maintenance of the Melanoderms, the basal media was supplemented with both bFGF and a-MSH, compounds which are stimulators of melanocyte growth and melanogenesis. The cultures were fed every other day for a total of 2 weeks—fresh active preparations, prepared in DMSO or culture media, were also applied to the Melanoderms when feeding was performed. Each treatment condition was done in duplicate and digital photographs were taken of the Melanoderm cultures to assess overall pigmentation. As well, microscopic images of the Melanoderms were done to assess the cell viability of the keratinocytes and melanocytes. For further evidence that the treatments were/not cytotoxic, an LDH assay (Promega, Madison, Wis.) was performed on the supernatants from 24 hour post-treatment cultures.
# To prepare tissues for assay:
# After treatment, tissues are usually frozen until completion of the experiment. Thaw tissues, a few at a time and place in D-PBS to remove excess phenol red from the culture medium and residual test article. Remove a single tissue from the insert. Blot dry and place in 1.7 ml. microfuge tube. Repeat for all samples. Add 250 ul Solvable™ (Tissue and Gel Solubilizer 0.5 M—Packard BioScience Co. Catalogue No. 6NE9100 (NEF910)). Close the tube and make sure that the tissue is completely submerged. Incubate at 60° C. overnight along with standards. In the morning, vortex the samples. Sometimes thick tissues will require additional time to complete the solution process. To prepare standard: Dissolve Melanin (Sigma cat. M 8631) in Solvable at 1 mg/ml. The solution may be warmed gently for 15 minutes at 37° C. Store solution in dark. To prepare standard curve: Prepare dilutions from the standard containing 0 ug to 250 ug of melanin in a total of 250 ul Solvable. Incubate dilutions along with samples. To read assay: Cool samples and standards. Centrifuge at 13,000 rpm for 5 minutes to pellet. Fill microwell plate (C-96) with 200 ul each of samples and standards. There is some foaming of samples when pipetted. Blow gently across the samples to break bubbles prior to reading the plate. Read plate at […].
compound,measurement,setting,value
CCC(=O)n1c(=O)sc2ccccc21 [3-propionylbenzothiazol-2-one],"OD = 490 nm (melanin content, Solvable melanin assay)",125 uM,1.522
same,"OD = 490 nm (melanin content, Solvable melanin assay)",250 uM,1.509
same,"OD = 490 nm (melanin content, Solvable melanin assay)",375 uM,1.377
same,"OD = 490 nm (melanin content, Solvable melanin assay)",500 uM,0.889
same,"OD = 490 nm (melanin content, Solvable melanin assay)",750 uM,0.727
same,"OD = 490 nm (melanin content, Solvable melanin assay)",1000 uM,0.184
same,effect on melanin synthesis,"conclusion from Table 5, Melanoderm cultures",reduce melanin synthesis

# — patent publication US7270805B1, “Skin lightening agents, compositions and methods” (Conopco, Inc., priority 2006, dated 2007)
